From patent US8084649B2, “Herbicides” (Syngenta Crop Protection, inc., priority 2007, dated 2011)

What was measured:
Type in all cases: in vivo
[1] = system: Alopecurus myosuroides (ALOMY); assay: Pre-emergence herbicidal activity, glasshouse pot test; conditions: Alopecurus myosuroides, 480 h, rate 500 g/ha, evaluated after 20 days, read-out: Pre-emergence activity, ALOMY (100=total damage to plant; 0=no damage to plant)
Description: (§1) Monocotyledonous and dicotyledonous test plants were sown in sterilised standard soil in pots. After cultivation for one day (pre-emergence) or after 10 days cultivation (post-emergence) under controlled conditions in a glasshouse, the plants were sprayed with an aqueous spray solution derived from the formulation of the technical active ingredient in 0.6 ml acetone and 45 ml formulation solution containing 10.6% Emulsogen EL (Registry number 61791-12-6), 42.2% N-methylpyrrolidone, 42.2% dipropylene glycol monomethyl ether (Registry number 34590-94-8) and 0.2% X-77 (Registry number 11097-66-8). The test plants were then grown in a greenhouse under optimum conditions until, 14 or 15 days later for post-emergence and 20 days for pre-emergence, the test was evaluated (100=total damage to plant; 0=no damage to plant). Alopecurus myosuroides (ALOMY), Avena fatua (AVEFA), Lolium perenne (LOLPE), Setaria faberi (SETFA), Digitaria sanguinalis (DIGSA), Echinochloa crus-galli (ECHCG) Pre-Emergence Activity

Avena fatua (AVEFA) [2] = assay: as above; conditions: Avena fatua, 480 h, rate 500 g/ha, evaluated after 20 days, read-out: Pre-emergence activity, AVEFA (100=total damage to plant; 0=no damage to plant)
Description: as §1

[3] = system: Digitaria sanguinalis (DIGSA); assay: as above; conditions: Digitaria sanguinalis, 480 h, rate 500 g/ha, evaluated after 20 days, read-out: Pre-emergence activity, DIGSA (100=total damage to plant; 0=no damage to plant)
Description: as §1

[4] = system: Echinochloa crus-galli (ECHCG); assay: as above; conditions: Echinochloa crus-galli, 480 h, rate 500 g/ha, evaluated after 20 days, read-out: Pre-emergence activity, ECHCG (100=total damage to plant; 0=no damage to plant)
Description: as §1

Lolium perenne (LOLPE) [5] = assay: as above; conditions: Lolium perenne, 480 h, rate 500 g/ha, evaluated after 20 days, read-out: Pre-emergence activity, LOLPE (100=total damage to plant; 0=no damage to plant)
Description: as §1

Setaria faberi (SETFA) [6] = assay: as above; conditions: Setaria faberi, 480 h, rate 500 g/ha, evaluated after 20 days, read-out: Pre-emergence activity, SETFA (100=total damage to plant; 0=no damage to plant)
Description: as §1

[7] = system: Alopecurus myosuroides (ALOMY); assay: Post-emergence herbicidal activity, glasshouse pot test; conditions: Alopecurus myosuroides, evaluated after 14 or 15 days, read-out: Post-emergence activity, ALOMY (100=total damage to plant; 0=no damage to plant); for pest or weed control at 125 g/ha: rate 125 g/ha; for pest or weed control at 500 g/ha: rate 500 g/ha
Description: as §1, with “Post-Emergence” for “Pre-Emergence”

Avena fatua (AVEFA) [8] = assay: as above; conditions: Avena fatua, evaluated after 14 or 15 days, read-out: Post-emergence activity, AVEFA (100=total damage to plant; 0=no damage to plant); for pest or weed control at 125 g/ha: rate 125 g/ha; for pest or weed control at 500 g/ha: rate 500 g/ha
Description: as §1, with “Post-Emergence” for “Pre-Emergence”

[9] = system: Digitaria sanguinalis (DIGSA); assay: as above; conditions: Digitaria sanguinalis, evaluated after 14 or 15 days, read-out: Post-emergence activity, DIGSA (100=total damage to plant; 0=no damage to plant); for pest or weed control at 125 g/ha: rate 125 g/ha; for pest or weed control at 500 g/ha: rate 500 g/ha
Description: as §1, with “Post-Emergence” for “Pre-Emergence”

[10] = system: Echinochloa crus-galli (ECHCG); assay: as above; conditions: Echinochloa crus-galli, evaluated after 14 or 15 days, read-out: Post-emergence activity, ECHCG (100=total damage to plant; 0=no damage to plant); for pest or weed control at 125 g/ha: rate 125 g/ha; for pest or weed control at 500 g/ha: rate 500 g/ha
Description: as §1, with “Post-Emergence” for “Pre-Emergence”

Lolium perenne (LOLPE) [11] = assay: as above; conditions: Lolium perenne, evaluated after 14 or 15 days, read-out: Post-emergence activity, LOLPE (100=total damage to plant; 0=no damage to plant); for pest or weed control at 125 g/ha: rate 125 g/ha; for pest or weed control at 500 g/ha: rate 500 g/ha
Description: as §1, with “Post-Emergence” for “Pre-Emergence”

Setaria faberi (SETFA) [12] = assay: as above; conditions: Setaria faberi, evaluated after 14 or 15 days, read-out: Post-emergence activity, SETFA (100=total damage to plant; 0=no damage to plant); for pest or weed control at 125 g/ha: rate 125 g/ha; for pest or weed control at 500 g/ha: rate 500 g/ha
Description: as §1, with “Post-Emergence” for “Pre-Emergence”

Row | Structure (SMILES) | pest or weed control at 500 g/ha [1] [%] | pest or weed control at 500 g/ha (Avena fatua (AVEFA) [2]) [%] | pest or weed control at 500 g/ha [3] [%] | pest or weed control at 500 g/ha [4] [%] | pest or weed control at 500 g/ha (Lolium perenne (LOLPE) [5]) [%] | pest or weed control at 500 g/ha (Setaria faberi (SETFA) [6]) [%] | pest or weed control at 125 g/ha [7] [%] | pest or weed control at 125 g/ha (Avena fatua (AVEFA) [8]) [%] | pest or weed control at 125 g/ha [9] [%] | pest or weed control at 125 g/ha [10] [%] | pest or weed control at 125 g/ha (Lolium perenne (LOLPE) [11]) [%] | pest or weed control at 125 g/ha (Setaria faberi (SETFA) [12]) [%] | pest or weed control at 500 g/ha [7] [%] | pest or weed control at 500 g/ha (Avena fatua (AVEFA) [8]) [%] | pest or weed control at 500 g/ha [9] [%] | pest or weed control at 500 g/ha [10] [%] | pest or weed control at 500 g/ha (Lolium perenne (LOLPE) [11]) [%] | pest or weed control at 500 g/ha (Setaria faberi (SETFA) [12]) [%]
1 | CCc1cc(C)cc(CC)c1C1=C(OC(=O)COC)CC2(CCOCC2)CC1=O [Compound P8] | 100 | 90 | 100 | 100 | 100 | 100 | 90 | 100 | 100 | 100 | 90 | 90 |  |  |  |  |  | 
2 | CCc1cc(C)cc(CC)c1C1=C(OC(=O)C2CC2)CC2(CCOCC2)CC1=O [Compound P9] | 100 | 100 | 100 | 100 | 100 | 100 | 80 | 100 | 90 | 100 | 90 | 90 |  |  |  |  |  | 
3 | CCc1cc(C)cc(CC)c1C1=C(OC(=O)C(C)(C)C)CC(C(C)(C)SC)CC1=O (stereo not shown) [Compound P52] | 100 | 100 | 100 | 100 |  | 100 |  |  |  |  |  |  | 100 | 90 | 90 | 90 | 100 | 90
4 | CCSC(C)CC1CC(=O)C(c2c(C)cc(C)cc2C)=C(O)C1 (stereo not shown) [Compound T9] | 30 | 30 | 40 |  | 0 |  |  |  |  |  |  |  | 50 | 50 | 90 | 80 | 50 | 80
5 | CCc1cc(C)cc(CC)c1C1=C(O)CC2(CCSCC2)CC1=O [Compound T11] | 80 |  | 90 | 80 | 100 | 90 |  |  |  |  |  |  | 80 | 80 | 90 | 90 | 70 | 90
6 | CCCS(=O)(=O)C(C)CC1CC(=O)C(c2c(CC)cc(C)cc2CC)=C(O)C1 (stereo not shown) [Compound T36] | 100 | 90 | 100 |  | 100 | 100 |  |  |  |  |  |  | 90 | 90 | 70 | 100 | 90 | 50
